Measured values taken from BindingDB's records for patent US20240092761 (Iambic Therapeutics, 2024).

Columns and labels:
[1] = target: Cyclin-dependent kinase 2/G1/S-specific cyclin-E1 (Homo sapiens, UniProt P24941); test: CDK2/Cyclin E1 Full Length ADP-Glo Kinase Assay
Method: ADP-Glo is performed in 2 steps upon completion of kinase reaction: a combined termination of kinase reaction and depletion of remaining ATP in the first step, and conversion of generated ADP to ATP and the newly produced ATP to light output using luciferase/luciferin reaction in the second step. The luminescent signal generated is proportional to the ADP concentration produced and is correlated with the kinase activity. CDK2/Cyclin E1 was purchased from Eurofins (Cat 14-475M). Typical reaction solutions (10 uL final reaction volume) contained 2% DMSO (f inhibitor), 10 mM MgCI2, 1 mM EGTA, 0.05% BSA, 2 mM DTT, 20 uM ATP (ATP Km=64.78 uM), 0.01% Brig-35, 0.75 uM substrate, and 0.328 nM wild-type full length CDK2/Cyclin E1 enzyme complex in 50 mM HEPES buffer at pH 7.5. The assay was initiated with the addition of ATP-containing substrate solution, following a 30-minute pre-incubation of enzyme and inhibitor at room temperature in the reaction mixture. The reaction was stopped after 90 minutes at room temperature by the addition of 10 uL of ADP-GLO Reagent. After a 90 minute incubation, 20 uL of Kinase Detection Reagent was added. Samples were incubated for 40 minutes, after which plate well luminescence was measured on a Envision microplate reader.

[2] = target: Cyclin-dependent kinase 4/G1/S-specific cyclin-D1 (Homo sapiens, UniProt P11802); test: CDK4/Cyclin D1 Mobility Shift Assay (MSA)
Cyclin-dependent kinase 4/G1/S-specific cyclin-D1, sequence (P11802 whole entry): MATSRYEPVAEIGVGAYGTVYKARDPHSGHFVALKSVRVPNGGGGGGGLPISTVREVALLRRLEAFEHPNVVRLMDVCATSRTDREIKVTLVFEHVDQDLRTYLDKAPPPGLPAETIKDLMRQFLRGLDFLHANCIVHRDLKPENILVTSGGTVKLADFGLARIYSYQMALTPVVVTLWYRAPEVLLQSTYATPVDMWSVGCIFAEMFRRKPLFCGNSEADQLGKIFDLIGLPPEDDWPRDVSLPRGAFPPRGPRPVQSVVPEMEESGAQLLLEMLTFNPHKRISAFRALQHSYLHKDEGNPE
Cyclin-dependent kinase 4/G1/S-specific cyclin-D1, sequence (P24385 whole entry, further chain): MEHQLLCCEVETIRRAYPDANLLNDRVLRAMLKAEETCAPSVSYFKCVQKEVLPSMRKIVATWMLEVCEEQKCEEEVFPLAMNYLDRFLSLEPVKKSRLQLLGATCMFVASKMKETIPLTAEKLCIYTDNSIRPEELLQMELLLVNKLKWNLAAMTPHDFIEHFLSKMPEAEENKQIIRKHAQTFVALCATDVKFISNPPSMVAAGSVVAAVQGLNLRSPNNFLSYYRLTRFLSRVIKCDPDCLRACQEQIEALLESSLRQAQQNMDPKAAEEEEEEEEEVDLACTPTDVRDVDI
Method: CDK4/Cyclin D1 catalyzes the production of ADP from ATP that accompanies the phosphoryl transfer to the substrate peptide 5-FAM-Dyrktide (5-FAM-RRRFRPASPLRGPPK) (Perkin Elmer Peptide 34). The mobility shift assay (MSA) electrophoretically separates the fluorescently labelled peptides (substrate and phosphorylated product) following the kinase reaction. Both substrate and product are measured, and the ratio of these values is used to generate % conversion of substrate to product by the LabChip EZ Reader. Typical reaction solutions contained 2% DMSO (+/−inhibitor), 10 mM MgCl2, 1 mM EGTA, 0.05% BSA, 2 mM DTT, 0.2 mM ATP, 0.01% Brig-35, 1.5 uM 5-FAM-Dyrktide, 2.5 nM CDK4/Cyclin D1 in 50 mM HEPES buffer at pH 7.5. The reaction was initiated with the addition of substrate solution, following a 30-minute pre-incubation of enzyme and inhibitor at 22° C. in the reaction mix. The reaction was stopped after 180 minutes by the addition of 75 uL of 500 mM EDTA and measured on a Perkin Elmer EZ reader instrument.

[3] = target: Cyclin-dependent kinase/G2/mitotic-specific cyclin- 1 (Homo sapiens, UniProt P06493); test: CDK1/Cyclin B1 ADP-Glo Kinase Assay
Cyclin-dependent kinase/G2/mitotic-specific cyclin- 1, sequence (P06493 whole entry): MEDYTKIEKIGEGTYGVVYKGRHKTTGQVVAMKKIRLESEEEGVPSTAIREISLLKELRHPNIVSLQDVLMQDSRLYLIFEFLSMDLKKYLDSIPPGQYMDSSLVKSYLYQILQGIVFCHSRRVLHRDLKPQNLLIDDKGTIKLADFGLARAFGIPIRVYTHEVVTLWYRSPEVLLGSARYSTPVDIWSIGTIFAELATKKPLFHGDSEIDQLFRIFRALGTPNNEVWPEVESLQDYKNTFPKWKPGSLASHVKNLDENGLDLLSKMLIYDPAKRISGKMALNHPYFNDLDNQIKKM
Cyclin-dependent kinase/G2/mitotic-specific cyclin- 1, sequence (P14635 whole entry, further chain): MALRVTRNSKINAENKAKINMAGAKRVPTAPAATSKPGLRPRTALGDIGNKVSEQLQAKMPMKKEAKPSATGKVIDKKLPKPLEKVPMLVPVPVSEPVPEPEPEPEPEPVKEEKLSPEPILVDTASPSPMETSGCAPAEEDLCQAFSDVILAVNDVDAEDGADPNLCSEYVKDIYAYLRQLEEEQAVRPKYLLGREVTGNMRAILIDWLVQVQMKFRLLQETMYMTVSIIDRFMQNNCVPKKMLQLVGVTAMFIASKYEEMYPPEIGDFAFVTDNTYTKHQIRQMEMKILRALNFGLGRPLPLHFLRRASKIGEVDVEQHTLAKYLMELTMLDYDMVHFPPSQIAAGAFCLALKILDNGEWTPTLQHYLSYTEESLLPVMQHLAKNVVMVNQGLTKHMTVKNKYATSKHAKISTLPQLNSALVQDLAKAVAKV
Method: The luminescent signal generated is proportional to the ADP concentration produced and is correlated with the kinase activity. CDK1/Cyclin B1 was purchased from Carna (Cat 04-102). Typical reaction solutions (10 uL final reaction volume) contained 2% DMSO (f inhibitor), 10 mM MgCl2, 1 mM EGTA, 0.05% BSA, 2 mM DTT, 80 uM ATP (ATP Km=78.6 uM), 0.01% Brig-35, 0.75 uM substrate, and 4.917 nM CDK1/Cyclin Bl enzyme complex in 50 mM HEPES buffer at pH 7.5. The assay was initiated with the addition of ATP-containing substrate solution, following a 30-minute pre-incubation of enzyme and inhibitor at room temperature in the reaction mixture. The reaction was stopped after 90 minutes at room temperature by the addition of 10 uL of ADP-GLO Reagent. After a 90 minute incubation, 20 uL of Kinase Detection Reagent was added. Samples were incubated for 40 minutes, after which plate well luminescence was measured on a Envision microplate reader.

CS(=O)(=O)N1CCC(Nc2ncc3cccc(N4CCC(N5CCC5)C4)c3n2)CC1 (stereo not drawn) [US20240092761, Compound 32]
IC50 [1]: < 200 nM | IC50 [2]: 200 to 500 nM | IC50 [3]: > 2000 nM
